According to patent US9610249B2, “Dosage and administration for preventing cardiotoxicity in treatment with ERbB2-targeted immunoliposomes comprising anthracycline chemotherapeutic agents” (MERRIMACK PHARMACEUTICALS, INC., priority 2010, dated 2017):

What was measured:
gamma-H2AX = format: cell-based, human
Protocol: (§1) Cardiomyocytes are treated as described above. Cells are fixed using 3.7% formaldehyde, washed twice with PBS containing 0.1% Tween-20 (PBS-T), and permeabilized with methanol. Cells are blocked using a 1:1 mixture of LI-COR® Odyssey® Blocking Buffer (Lincoln, Nebr.) and PBS-T for 1 h at room temperature (RT). Cells are stained with a 1:400 dilution of the indicated primary antibody from Cell Signaling Technology (Beverly, Mass.) and incubated shaking at 4° C. overnight. Cells are washed and incubated with a 1:2,000 dilution of the fluorescently labeled secondary antibody for 1 h at RT. Cells are stained with a 1:10,000 dilution of Hoechst 33342 and 1:1,000 dilution of Whole Cell Stain from Pierce Protein Research Products (Rockford, Ill.) for 30 min at RT to allow visualization of DNA and the whole cell, respectively. Plates are scanned using the Applied Precision Instruments ArrayWorx® High Content Scanner (Issaquah, Wash.) with a 10× objective for Hoechst 33342/Whole Cell Stain (460 nm), doxorubicin (595 nm), and APC/DiI5 (657 nm). Images are analyzed using the software ImageRail (as described in Millard et al., Nat Methods. 2011; 8:487-92). An intensity threshold is established for nuclear and whole cell signals. This threshold is then applied to all images and used to segment individual cells. […]

cleaved PARP (cPARP) = format: cell-based
Protocol: as §1

phospho-p53 = experiment: High-content analysis of cell stress in cardiomyocytes; format: cell-based, human; conditions: ESCd cardiomyocytes, 3 h treatment, 24 h fresh media
Protocol: as §1

ESCd cardiomyocytes = experiment: Uptake of liposomes in cardiomyocytes (HPLC); format: cell-based, human; conditions: ESCd cardiomyocytes (approximately 70,000 HER2 receptors per cell), 15.0 μg/ml dox equiv.
Protocol: (§2) iPSd cardiomyocytes are plated per the manufacturer's instructions (Cell Dynamics International Cat #CMC-100-110-001) in a 24-well tissue culture plate at 250,000 cells/well. Two days later, the 0.5 ml of media in the wells is removed and replaced with 0.5 ml of 15.0 μg/ml (dox equiv.) of MM-302, PLD or free doxorubicin. The plates are swirled in a “figure 8 fashion” 20 times to maximize exposure of the cells to the liposomes. Cells are incubated with MM-302, PLD or free doxorubicin for the indicated time period after which the media are removed and the cells are washed once with 0.5 ml of PBS. The PBS is removed and 0.5 ml of 0.05% trypsin is added to each well. The cells are monitored, and once detachment begins, 0.5 ml of medium containing FBS is added to each well to inactivate the trypsin. The cells are collected and placed in microcentrifuge tubes. The cells are spun at 1,500 rpm for 5 minutes at 4° C. […] Samples are run on the HPLC machine and concentration per sample is determined by relating values to a doxorubicin standard curve.
(§3) To determine if the level of HER2 expression on cardiomyocytes is sufficient to induce uptake of MM-302, total cellular doxorubicin was quantified by HPLC following treatment of ESCd (FIG. 4A) and iPSd (FIG. 4B) cardiomyocytes.

iPSd cardiomyocytes [1] = experiment: Uptake of liposomes in cardiomyocytes (HPLC); format: cell-based, human; conditions: iPSd cardiomyocytes (approximately 200,000 HER2 receptors per cell), 15.0 μg/ml dox equiv.
Protocol: as §2, §3

phospho-HSP27 = format: cell-based
Protocol: as §1

[2] = Nuclear doxorubicin in heart sections (confocal microscopy and image analysis); conditions: 3 mg/kg dox equiv. i.v.
Protocol: (§4) Mice are randomized into 4 groups that received a single intravenous (i.v.) dose of either PBS, doxorubicin, MM-302-DiI5 or PLD-DiI5 (all at 3 mg/kg), respectively. Mice (n=4/time point/group) are sacrificed at 0.5, 4, 24 and 96 h (doxorubicin) or 168 h (MM-302-DiI5 and PLD-DiI5) after the single dose. Five minutes before sacrificing, mice are injected i.v. with 100 μl of FITC-lectin, to label the vasculature.

[3] = patients; cited from earlier work
[4] = Biodistribution of doxorubicin in heart tissue of NCI-N87 tumor bearing mice (HPLC); conditions: 3 mg/kg dox equiv. i.v.
Protocol: 5-7-week-old female nude mice are purchased from Charles River Laboratories or Taconic Farms, Inc (NCr nude mice). Unless otherwise indicated, mice are inoculated with BT474-M3 breast cancer cells or NCI-N87 gastric cancer cells (NCI-DTP, 10×10^6 cells in 100 μl RPMI) into the right dorsal flank of the mice (subcutaneous injection, s.c.). When the tumors reach an average volume of ˜200 mm^3, studies are performed as described below.
as §4
Heart tissues are weighed and disaggregated with 1 mL H2O using a TissueLyser™ (Qiagen) for 3 min. 100 μl of the homogenate is then transferred into a new tube and 900 μl of 1% acetic acid/methanol is added. For the cultured cells, cells are treated with drug, as described above, trypsinized and lysed using 1.0% acetic acid in methanol. Lysates are vortexed for 10 sec. and placed at −80° C. for 1 h. Samples are spun at room temperature (RT) for 10 min at 10,000 RPM. Supernatants and doxorubicin standards are analyzed by HPLC (Dionex) using a C18 reverse phase column (Synergi™ POLAR-RP® 80 Å, 250×4.60 mm 4 μm column). Doxorubicin is eluted running a gradient from 30% acetonitrile; 70% 0.1% trifluoroacetic acid (TFA)/H2O to 55% acetonitrile; 45% 0.1% TFA/H2O during a 7 min span at a flow rate of 1.0 ml/min. The doxorubicin peak is detected at 6.5 min using an in-line fluorescence detector excited at 485 nm, and emitting at 590 nm.
The macro-level biodistributions of MM-302 (square), PLD (UT-PLD, triangle) and doxorubicin (free dox, circle) were compared in mouse heart tissue (FIG. 7A), human xenograft tumor tissue (FIG. 7B) and paw tissue (FIG. 7C) in NCI-N87 tumor bearing mice inoculated as described above. Mice (n=4/time point/group) were injected i.v. with MM-302, PLD, or free doxorubicin (all at 3 mg/kg dox equiv.) and hearts were collected at 0.5, 4, 24, and 96 h (for dox) or 168 h (for MM-302 and PLD) post injection and doxorubicin quantified by HPLC (FIG. 7A).

iPSd cardiomyocytes [5] = format: cell-based, human
Excerpt: Exposure to low levels of doxorubicin can be cytotoxic.

[6] = tested on: Troponin I (iPSd cardiomyocytes)
Protocol: 15,000 iPSd (iCELL®) cardiomyocytes (Cellular Dynamics International, Madison Wis.) cells are plated per the manufacturer's protocol. […] The supernatant is collected and analyzed using a human Troponin I ELISA (Catalog #: GWB-83A61F, Genway Biotech, San Diego Calif.) per the manufacturer's protocol. A PrestoBlue® Cell Viability Assay (Catalog #: A-13261, Invitrogen, Grand Island, N.Y.) is performed on the remaining cells in 100 μl per the manufacturer's protocol.

BT474-M3 cells = experiment: Binding and internalization into HER2 over-expressing tumor cells (total and nuclear doxorubicin); format: cell-based, human; conditions: BT474-M3 (1.7×10^6 HER2/cell), 15 μg/ml, up to 3 h
phospho-AKT (pAKT) = experiment: Signaling in iPS-derived cardiomyocytes; format: cell-based, human; conditions: 24 hours pretreatment
Protocol: (§5) Cells are stained and imaged using high content microscopy as described above for (A) pAKT and (B) pERK following a10 minute stimulation with 10 nM and 5 nM of heregulin, respectively. The following primary antibodies are used at a 1:400 dilution in blocking buffer: pERK antibody—Cell Signaling Technology (CST—Danvers Mass.)—Catalog 9106L (Phospho-p44/42 MAPK (Erk1/2) (Thr202/Tyr204) (E10) Mouse mAb #9106); pAKT antibody—CST—Catalog 4060L (Phospho-Akt (Ser473) (D9E) XP™ Rabbit mAb #4060). Secondary antibodies are Anti-mouse IgG (H+L), F(ab′)2 Fragment (Alexa Fluor® 647 Conjugate)—CST—Catalog 4410; Anti-rabbit IgG (H+L), F(ab′)2 Fragment (Alexa Fluor® 647 Conjugate)—CST—Catalog 4414. Whole cell stain and DNA stain (Hoechst 33342) are used as described above. Images are analyzed and individual cells are segmented on the basis of Hoechst 33342 nuclear staining. Single cell signal intensity for each stain is quantified and represented as the mean relative intensity of individual cells.
(§6) After stimulation with 10 nM (FIG. 6A) and 5 nM (FIG. 6B) of heregulin (HRG) for 10 min, the levels of phospho-AKT (pAKT, FIG. 6A) and phospho-ERK (pERK, FIG. 6B) were measured by high content microscopy as described above.

phospho-ERK (pERK) = experiment: Signaling in iPS-derived cardiomyocytes; format: cell-based, human; conditions: 24 hours pretreatment
Protocol: as §5, §6

## COc1cccc2c1C(=O)c1c(O)c3c(c(O)c1C2=O)C[C@@](O)(C(=O)CO)C[C@@H]3O[C@H]1C[C@H](N)[C@H](O)[C@H](C)O1 [doxorubicin, Doxorubicin]
gamma-H2AX
  nuclear gamma-H2AX: dose-dependent increase in nuclear gamma-H2AX
Cleaved PARP (cPARP)
  nuclear cleaved PARP (cPARP) at 5.0 μg/ml: increase in nuclear cleaved PARP
phospho-p53
  phospho-p53: dose-dependent increase
ESCd cardiomyocytes
  total cellular doxorubicin (uptake): doxorubicin accumulation in all cells
iPSd cardiomyocytes [1]
  total cellular doxorubicin (uptake): doxorubicin accumulation in all cells
phospho-HSP27
  phospho-HSP27: dose-dependent increase
[2]; 0.5 h
  nuclei positive for doxorubicin in heart tissue at 0.5 h: about 50%
[2]; 4 h
  nuclei positive for doxorubicin in heart tissue at 4 h: 23%
[2]; 24 h
  nuclei positive for doxorubicin in heart tissue at 24 h: returned to basal levels
[3]
  cumulative doxorubicin exposure that increases the potential for cardiomyopathy and heart failure: above 550 mg/m^2
[4]
  clearance of doxorubicin from the heart tissue: faster compared to MM-302 and PLD
  time of peak doxorubicin exposure in the heart: 0.5 h
[4]; 0.5 h post injection
  doxorubicin in the heart at 0.5 h: 10 % of injected dose (i.d.)/g tissue
[4]; 24 h post injection
  doxorubicin in the heart at 24 h: 0.77 % of i.d./g tissue
iPSd cardiomyocytes [5]
  effect on cardiomyocyte viability: marked decrease in viability
[6]
  Troponin I in supernatant: marked increase of Troponin I
BT474-M3 cells
  total cell binding and nuclear doxorubicin accumulation: freely enter cells and accumulate in the nucleus

## CS(=O)(=O)CCNCc1ccc(-c2ccc3ncnc(Nc4ccc(OCc5cccc(F)c5)c(Cl)c4)c3c2)o1 [lapatinib]
phospho-AKT (pAKT); no heregulin
  basal phosphorylation of AKT: reduction in basal phosphorylation
phospho-AKT (pAKT); 10 nM heregulin, 10 min
  heregulin (HRG)-induced phosphorylation of AKT: complete inhibition of HRG-induced phosphorylation
phospho-ERK (pERK); no heregulin
  basal phosphorylation of ERK: reduction in basal phosphorylation
phospho-ERK (pERK); 5 nM heregulin, 10 min
  heregulin (HRG)-induced phosphorylation of ERK: complete inhibition of HRG-induced phosphorylation
